# Source: patent US20160046618A1, “Cyclopropyl Fused Thiazin-2-Amine Compounds as Beta-Secretase Inhibitors and Methods of Use” (AMGEN INC., priority 2014, published 2016)
# Key:
# human recombinant BACE2 = human recombinant BACE2 (Homo sapiens (Human), UniProt Q9Y5Z0); assay: In vitro enzymatic BACE2 FRET assay; type: biochemical; settings: BACE2 FRET enzyme assay; read-out: IC50 IP (μM) BACE2 enzyme
# Method: These recombinant proteins were further purified using Ni-NTA affinity chromatography (Qiagen). […] This assay is effectively started by the addition of FRET substrate (50 nM) and the combination is incubated for one hour. The FRET assay is terminated by addition of Tris buffer, which raises the pH to neutrality, and the fluorescence is determined. The FRET substrate is a peptide with commercially available fluorophore and quencher, on opposite sides of the BACE cleavage site. Proteolytic cleavage of the FRET substrate releases quenching of fluorescence (excitation 488 nm and emission 590 nm).
# [1] = tested on: Aβ40 in conditioned medium of cells stably expressing Amyloid Precursor Protein (APP); assay: In vitro BACE-1 cell-based assay (Aβ40 sandwich ELISA); settings: BACE1 cell-based assay; read-out: IC50 IP (μM) BACE1 cell
# Outline: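 Aβ40 in supernatants measured by time-resolved fluorescence sandwich ELISA, with pAb40 as capture and biotin-6E10 as detector antibody, each incubated at 4 °C.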
# Recombinant Cat D = Recombinant Cat D (Homo sapiens (Human), UniProt P07339); assay: In vitro enzymatic Cathepsin D (Cat D) FRET assay; type: biochemical; settings: Cathepsin D FRET enzyme assay; read-out: IC50 IP (μM) CatD
# Outline: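 Fluorescence at 500 nm excitation and 580 nm emission reports cleavage of a quenched fluorophore–quencher peptide (20 nM) by CHO-expressed Cat D. Reactions ran one hour in 0.05 M citrate pH 3.5, 5 mM CHAPS, 10% DMSO final before a Tris stop raised pH to neutrality.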
# human recombinant BACE1 = human recombinant BACE1 (Homo sapiens (Human), UniProt P56817); assay: In vitro enzymatic BACE1 FRET assay; type: biochemical; settings: BACE1 FRET enzyme assay; read-out: IC50 IP (μM) BACE1 enzyme
# Outline: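 Fluorescence from cleavage of a quenched peptide spanning the BACE site (50 nM) was read at 488 nm excitation, 590 nm emission. Purified enzyme (Ni-NTA) and compound reacted for one hour before a Tris stop shifted pH to neutral.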
# Recombinant Cat D, sequence (P07339 65-412): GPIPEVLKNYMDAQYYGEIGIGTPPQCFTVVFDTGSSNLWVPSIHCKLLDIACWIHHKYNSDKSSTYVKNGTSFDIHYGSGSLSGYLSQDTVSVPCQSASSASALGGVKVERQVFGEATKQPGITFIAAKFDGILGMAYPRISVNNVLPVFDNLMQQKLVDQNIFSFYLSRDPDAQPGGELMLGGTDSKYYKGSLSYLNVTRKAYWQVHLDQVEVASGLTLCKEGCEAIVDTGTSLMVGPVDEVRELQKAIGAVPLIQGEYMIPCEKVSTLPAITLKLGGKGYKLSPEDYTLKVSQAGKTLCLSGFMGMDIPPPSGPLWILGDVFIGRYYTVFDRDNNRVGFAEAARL
# human recombinant BACE1, sequence (P56817 46-501): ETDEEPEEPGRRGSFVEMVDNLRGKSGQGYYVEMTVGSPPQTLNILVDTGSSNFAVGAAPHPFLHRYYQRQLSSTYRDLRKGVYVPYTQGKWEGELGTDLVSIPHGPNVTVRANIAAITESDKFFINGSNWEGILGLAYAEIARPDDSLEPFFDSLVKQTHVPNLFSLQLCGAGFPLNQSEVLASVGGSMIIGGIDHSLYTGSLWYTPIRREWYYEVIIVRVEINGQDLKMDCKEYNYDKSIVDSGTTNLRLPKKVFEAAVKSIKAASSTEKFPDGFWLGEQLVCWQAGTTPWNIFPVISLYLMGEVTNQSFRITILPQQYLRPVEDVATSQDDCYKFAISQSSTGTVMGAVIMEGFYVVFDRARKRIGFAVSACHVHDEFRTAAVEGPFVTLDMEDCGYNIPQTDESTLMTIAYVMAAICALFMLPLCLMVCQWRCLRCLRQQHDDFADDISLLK
# human recombinant BACE2, sequence (Q9Y5Z0 63-518): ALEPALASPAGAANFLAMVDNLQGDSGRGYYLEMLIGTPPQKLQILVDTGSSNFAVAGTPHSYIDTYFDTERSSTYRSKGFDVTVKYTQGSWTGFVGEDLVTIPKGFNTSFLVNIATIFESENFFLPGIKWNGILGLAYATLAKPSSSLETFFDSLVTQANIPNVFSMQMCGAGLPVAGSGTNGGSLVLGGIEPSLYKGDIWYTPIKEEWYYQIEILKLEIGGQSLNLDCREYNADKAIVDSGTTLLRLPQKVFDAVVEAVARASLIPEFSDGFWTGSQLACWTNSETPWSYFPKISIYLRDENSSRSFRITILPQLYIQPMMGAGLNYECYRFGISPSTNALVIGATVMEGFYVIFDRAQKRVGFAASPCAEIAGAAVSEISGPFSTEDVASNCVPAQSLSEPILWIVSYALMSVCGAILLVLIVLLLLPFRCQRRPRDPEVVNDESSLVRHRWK
Structure (SMILES),IC50 (human recombinant BACE2),IC50 [1],IC50 (Recombinant Cat D),IC50 (human recombinant BACE1)
"C#CCOc1cnc(C(=O)Nc2cc(F)c(F)c([C@@]3(C)N=C(N)S[C@@]4(CO)C[C@H]43)c2)cn1 [Example 61, N-(3-((1S,5S,6S)-3-amino-1-(hydroxymethyl)-5-methyl-2-thia-4-azabicyclo[4.1.0]hept-3-en-5-yl)-4,5-difluorophenyl)-5-(2-propyn-1-yloxy)-2-pyrazinecarboxamide]",0.0201 µM,0.00035 µM,59.7 µM,0.0003 µM
"COc1cnc2c(Nc3cc(F)c(F)c([C@@]4(CF)N=C(N)S[C@H]5C[C@H]54)c3)nccc2n1 [Example 62, N-(3-((1S,5S,6S)-3-amino-5-(fluoromethyl)-2-thia-4-azabicyclo[4.1.0]hept-3-en-5-yl)-4,5-difluorophenyl)-2-methoxypyrido[3,4-b]pyrazin-5-amine]",0.0885 µM,0.14 µM,295 µM,0.0289 µM
"CC(C)Oc1cnc2c(Nc3cc(F)c(F)c([C@@]4(CF)N=C(N)S[C@H]5C[C@H]54)c3)nccc2n1 [Example 63, N-(3-((1S,5S,6S)-3-amino-5-(fluoromethyl)-2-thia-4-azabicyclo[4.1.0]hept-3-en-5-yl)-4,5-difluorophenyl)-2-(1-methylethoxy)pyrido[3,4-b]pyrazin-5-amine]",3.75 µM,4.65 µM,494 µM,0.137 µM
"COc1cnc2c(Nc3cc(F)c(F)c([C@@]4(C)N=C(N)S[C@@]5(CF)C[C@H]54)c3)ncnc2c1 [Example 64, (1S,5S,6S)-5-(2,3-difluoro-5-((7-methoxypyrido[3,2-d]pyrimidin-4-yl)amino)phenyl)-1-(fluoromethyl)-5-methyl-2-thia-4-azabicyclo[4.1.0]hept-3-en-3-amine]",0.025 µM,0.00281 µM,268 µM,0.00448 µM
"COC[C@]12C[C@H]1[C@@](C)(c1cc(Nc3ncnc4cc(OC)cnc34)cc(F)c1F)N=C(N)S2 [Example 65, N-(3-((1S,5S,6S)-3-amino-1-(methoxymethyl)-5-methyl-2-thia-4-azabicyclo[4.1.0]hept-3-en-5-yl)-4,5-difluorophenyl)-7-methoxypyrido[3,2-d]pyrimidin-4-amine]",0.0836 µM,0.00781 µM,1230 µM,0.0133 µM
"COc1cnc2c(Nc3cc(F)c(F)c([C@@]4(CF)N=C(N)S[C@H]5C[C@H]54)c3)ncnc2c1 [Example 66, N-(3-((1S,5S,6S)-3-amino-5-(fluoromethyl)-2-thia-4-azabicyclo[4.1.0]hept-3-en-5-yl)-4,5-difluorophenyl)-7-methoxypyrido[3,2-d]pyrimidin-4-amine]",0.132 µM,0.0525 µM,> 400 µM,0.0171 µM
"C[C@]1(c2cc(NC(=O)c3ccc(Cl)cn3)ccc2F)N=C(N)S[C@@H]2[C@H]1C2(F)F [Example 69, N-(3-((1R,5S,6R)-3-amino-7,7-difluoro-5-methyl-2-thia-4-azabicyclo[4.1.0]hept-3-en-5-yl)-4-fluorophenyl)-5-chloro-2-pyridinecarboxamide]",0.00302 µM,0.114 µM,939 µM,0.0152 µM
"Cc1cc(C#N)cnc1C(=O)Nc1cc(F)c(F)c([C@@]2(CF)N=C(N)S[C@@]3(CO)C[C@H]32)c1 [Example 70, N-(3-((1S,5S,6S)-3-amino-5-(fluoromethyl)-1-(hydroxymethyl)-2-thia-4-azabicyclo[4.1.0]hept-3-en-5-yl)-4,5-difluorophenyl)-5-cyano-3-methyl-2-pyridinecarboxamide]",0.00247 µM,0.0035 µM,> 400 µM,0.00116 µM
"C#CCOc1ccc(C(=O)Nc2cc(F)c(F)c([C@@]3(C)N=C(N)S[C@@]4(CO)C[C@H]43)c2)nc1 [Example 71, N-(3-((1S,5S,6S)-3-amino-1-(hydroxymethyl)-5-methyl-2-thia-4-azabicyclo[4.1.0]hept-3-en-5-yl)-4,5-difluorophenyl)-5-(2-propyn-1-yloxy)-2-pyridinecarboxamide]",0.0375 µM,0.00156 µM,329 µM,0.00047 µM
"COC[C@]12C[C@H]1[C@@](CF)(c1cc(Nc3ncnc4cc(Cl)cnc34)ccc1F)N=C(N)S2 [Example 73, N-(3-((1S,5S,6S)-3-amino-5-(fluoromethyl)-1-(methoxymethyl)-2-thia-4-azabicyclo[4.1.0]hept-3-en-5-yl)-4-fluorophenyl)-7-chloropyrido[3,2-d]pyrimidin-4-amine]",0.00296 µM,0.0177 µM,> 400 µM,0.00911 µM
"COc1cnc(C(=O)Nc2ccc(F)c([C@@]3(CF)N=C(N)S[C@@]4(CO)C[C@H]43)c2)c(C)n1 [Example 75, N-(3-((1S,5S,6S)-3-amino-5-(fluoromethyl)-1-(hydroxymethyl)-2-thia-4-azabicyclo[4.1.0]hept-3-en-5-yl)-4-fluorophenyl)-5-methoxy-3-methyl-2-pyrazinecarboxamide]",0.0295 µM,0.0136 µM,> 400 µM,0.012 µM
"C#CCOc1cnc(C(=O)Nc2ccc(F)c([C@@]3(CF)N=C(N)S[C@@]4(CO)C[C@H]43)c2)c(C)n1 [Example 76, N-(3-((1S,5S,6S)-3-amino-5-(fluoromethyl)-1-(hydroxymethyl)-2-thia-4-azabicyclo[4.1.0]hept-3-en-5-yl)-4-fluorophenyl)-3-methyl-5-(2-propyn-1-yloxy)-2-pyrazinecarboxamide]",0.0174 µM,0.00271 µM,1490 µM,0.00095 µM
"C#CCOc1cnc(C(=O)Nc2cc(F)c(F)c([C@@]3(C)N=C(N)S[C@H]4C[C@H]43)c2)c(C)n1 [Example 77, N-(3-((1S,5S,6S)-3-amino-5-methyl-2-thia-4-azabicyclo[4.1.0]hept-3-en-5-yl)-4,5-difluorophenyl)-3-methyl-5-(2-propyn-1-yloxy)-2-pyrazinecarboxamide]",0.0461 µM,0.0217 µM,949 µM,0.0047 µM
"Cc1cc(Cl)cnc1C(=O)Nc1cc(F)c(F)c([C@@]2(CF)N=C(N)S[C@H]3C[C@H]32)c1 [Example 78, N-(3-((1S,5S,6S)-3-amino-5-(fluoromethyl)-2-thia-4-azabicyclo[4.1.0]hept-3-en-5-yl)-4,5-difluorophenyl)-5-chloro-3-methyl-2-pyridinecarboxamide]",0.00126 µM,0.0917 µM,627 µM,0.00464 µM
"Cc1nc(OCC(F)(F)F)cnc1C(=O)Nc1ccc(F)c([C@@]2(CF)N=C(N)S[C@@]3(CO)C[C@H]32)c1 [Example 79, N-(3-((1S,5S,6S)-3-amino-5-(fluoromethyl)-1-(hydroxymethyl)-2-thia-4-azabicyclo[4.1.0]hept-3-en-5-yl)-4-fluorophenyl)-3-methyl-5-(2,2,2-trifluoroethoxy)-2-pyrazinecarboxamide]",0.143 µM,0.0284 µM,> 400 µM,0.00489 µM
"N#Cc1cnc2c(Nc3ccc(F)c([C@@]4(CF)N=C(N)S[C@@]5(CO)C[C@H]54)c3)ncnc2c1 [Example 80, 4-((3-((1S,5S,6S)-3-amino-5-(fluoromethyl)-1-(hydroxymethyl)-2-thia-4-azabicyclo[4.1.0]hept-3-en-5-yl)-4-fluorophenyl)amino)pyrido[3,2-d]pyrimidine-7-carbonitrile]",0.0251 µM,0.00851 µM,> 400 µM,0.00913 µM
"COc1cnc(C(=O)Nc2cc(F)c(F)c([C@@]3(CF)N=C(N)S[C@H]4C[C@H]43)c2)c(C)c1 [Example 81, N-(3-((1S,5S,6S)-3-amino-5-(fluoromethyl)-2-thia-4-azabicyclo[4.1.0]hept-3-en-5-yl)-4,5-difluorophenyl)-5-methoxy-3-methyl-2-pyridinecarboxamide]",0.0116 µM,0.047 µM,1390 µM,0.0219 µM
"C#CCOc1cnc(C(=O)Nc2cc(F)c(F)c([C@@]3(CF)N=C(N)S[C@@]4(CO)C[C@H]43)c2)cn1 [Example 83, N-(3-((1S,5S,6S)-3-amino-5-(fluoromethyl)-1-(hydroxymethyl)-2-thia-4-azabicyclo[4.1.0]hept-3-en-5-yl)-4,5-difluorophenyl)-5-(2-propyn-1-yloxy)-2-pyrazinecarboxamide]",0.0138 µM,0.00092 µM,105 µM,0.00046 µM
"CC#CCOc1cnc(C(=O)Nc2cc(F)c(F)c([C@@]3(C)N=C(N)S[C@@]4(CO)C[C@H]43)c2)c(C)c1 [Example 85, N-(3-((1S,5S,6S)-3-amino-1-(hydroxymethyl)-5-methyl-2-thia-4-azabicyclo[4.1.0]hept-3-en-5-yl)-4,5-difluorophenyl)-5-(2-butyn-1-yloxy)-3-methyl-2-pyridinecarboxamide]",0.0435 µM,0.00216 µM,1550 µM,0.00062 µM
